Where two headings read alike, the source gives them in different places.
Assays:
Format in all cases: in vivo
[1] = tested on: mustard beetle larvae (Phaedon cochleariae); experiment: Phaedon cochleariae - spray test; details: foliar, 144 h, read-out: Efficacy in % after 6d (mortality)
Source text: (§1) The expected activity for a given combination of two active compounds can be calculated according to S. R. Colby, Weeds 15 (1967), 20-22 as follows: • If • X is the efficacy expressed in % mortality of the untreated control for test compound A at a concentration of m ppm respectively m g/ha, • Y is the efficacy expressed in % mortality of the untreated control for test compound B at a concentration of n ppm respectively n g/ha, • E is the efficacy expressed in % mortality of the untreated control using the mixture of A and B at m and n ppm respectively m and n g/ha,
(§2) If the observed insecticidal efficacy of the combination is higher than the one calculated as “E”, then the combination of the two compounds is more than additive, i.e., there is a synergistic effect.
To produce a suitable preparation of active compound, 1 part by weight of active compound is mixed with the stated amount of solvent and emulsifier, and the concentrate is diluted with emulsifier-containing water to the desired concentration. To produce a suitable preparation of a spore suspension the spores are diluted with emulsifier-containing water to the desired concentration.
Chinese cabbage (Brassica pekinensis) leaf-disks are sprayed with a preparation of the active ingredient of the desired concentration. Once dry, the leaf disks are infested with mustard beetle larvae (Phaedon cochleariae).
After the specified period of time, mortality in % is determined. 100% means all beetle larvae have been killed and 0% means none of the beetle larvae have been killed. The mortality values determined thus are recalculated using the Colby-formula (see sheet 1).

[2] = tested on: green peach aphid (Myzus persicae); experiment: Myzus persicae - spray test
Source text: as §1, §2
(§3) To produce a suitable preparation of active compound, 1 part by weight of active compound is mixed with the stated amount of solvent and emulsifier, and the concentrate is diluted with emulsifier-containing water to the desired concentration.
Chinese cabbage (Brassica pekinensis) leaf-disks infected with all instars of the green peach aphid (Myzus persicae) are sprayed with a preparation of the active ingredient of the desired concentration.
After the specified period of time, mortality in % is determined 100% means all aphids have been killed; 0% means none of the aphids have been killed. The mortality values determined thus are recalculated using the Colby-formula (see sheet 1).

[3] = tested on: larvae of the diamondback moth (Plutella xylostella); experiment: Plutella xylostella - spray test; details: cabbage leaves
Source text: as §1, §2
as §3, with “concentration Ammonium salt and/or penetration enhancer in a dosage of 1000 ppm are added to the desired concentration if necessary. […]” for “concentration.”
After the specified period of time, the mortality in % is determined. […] The mortality values determined thus are recalculated using the Colby-formula (see sheet 1).

SMILES: Cc1cc(C(F)(C(F)(F)F)C(F)(F)F)ccc1NC(=O)c1cccc(Cl)c1C(=O)NC(C)(C)C#N [(I-5)]
- mortality at 2.5 g/ha ([1]; 2.5 g ai/ha, Chinese cabbage leaf disks, 6 d): 0%
- mortality at 4 g/ha ([1]; 4 g ai/ha, Chinese cabbage leaf disks, 6 d): 0%
- mortality at 12 g/ha ([1]; 12 g ai/ha, Chinese cabbage leaf disks, 6 d): 0%
- mortality at 1.25 g/ha ([2]; Myzus persicae, foliar, 144 h, 1.25 g ai/ha, Chinese cabbage leaf disks, 6 d, read-out: Efficacy in % after 6d (mortality)): 0%
- mortality at 1.5 g/ha ([2]; Myzus persicae, foliar, 144 h, 1.5 g ai/ha, Chinese cabbage leaf disks, 6 d, read-out: Efficacy in % after 6d (mortality)): 0%
- mortality at 15 g/ha ([2]; Myzus persicae, foliar, 144 h, 15 g ai/ha, Chinese cabbage leaf disks, 6 d, read-out: Efficacy in % after 6d (mortality)): 0%

SMILES: O=C(NCCc1ncc(C(F)(F)F)cc1Cl)c1ccccc1C(F)(F)F [Fluopyram, fluopyram]
- mortality at 100 g/ha ([1]; in Brassica rapa): 0%
- mortality at 50 ppm ([3]; Plutella xylostella, 72 h, 50 ppm, 3 d, read-out: Efficacy in % after 3d (mortality)): 0%

SMILES: CC(c1ccc(C(F)(F)F)nc1)S(C)(=O)=NC#N (stereo not shown) [Sulfoxaflor (II-13), Sulfoxaflor]
- mortality at 0.16 g/ha ([1]; in Brassica rapa): 0%
- mortality at 12 g/ha ([1]; in Brassica rapa): 0%
- mortality at 0.3 g/ha ([2]; Myzus persicae, in Brassica rapa, foliar, 144 h, read-out: Efficacy in % after 6d (mortality)): 70%

SMILES: O=C1C=C(N(Cc2ccc(Cl)nc2)CC(F)F)CO1 [Flupyradifurone]
- Efficacy in % after 2d (mortality) ([3]; 1.25 ppm, 2 d): 0%
- Efficacy in % after 6d (mortality) ([2]; 0.5 g ai/ha, Chinese cabbage leaf disks, 6 d): 0%

From patent US9549551B2, “Active compound combinations having insecticidal properties” (priority 2013, dated 2017)
